Measured values reported in publication PMC7335108, “Butyrate producing colonic Clostridiales metabolise human milk oligosaccharides and cross feed on mucin via conserved pathways” (Nature Communications, 2020).
“And” between values parts separate entries of the source, which are not always exact repeats. Equal values may be shown once. One block for each molecule: values may come before it.

Assays:
RhLNBBP [1] = molecular target: T1, RhLNBBP (Roseburia hominis, UniProt G2T0U7); test: isothermal titration calorimetry; assay type: binding; details: 10 mM sodium phosphate, pH 6.5, 25 °C
T1 construct: gene RHOM_04095; signal peptide removed, cleavable His6 tag, pETM11, expressed in E. coli

RiGLnbp112 = molecular target: T2, RiGLnbp112 (Roseburia inulinivorans, UniProt A0ACG1Y7L8); test: phosphorolysis, HPAEC-PAD of Gal1P; specific activity only; assay type: biochemical; details: 50 mM sodium phosphate, 150 mM NaCl, 0.005% Triton X-100, pH 6.5, 37 °C, 2 mM substrate
T2 construct: gene gnpA; cleavable His6 tag, pETM11, E. coli
T2 sequence (A0ACG1Y7L8 entry or part of it): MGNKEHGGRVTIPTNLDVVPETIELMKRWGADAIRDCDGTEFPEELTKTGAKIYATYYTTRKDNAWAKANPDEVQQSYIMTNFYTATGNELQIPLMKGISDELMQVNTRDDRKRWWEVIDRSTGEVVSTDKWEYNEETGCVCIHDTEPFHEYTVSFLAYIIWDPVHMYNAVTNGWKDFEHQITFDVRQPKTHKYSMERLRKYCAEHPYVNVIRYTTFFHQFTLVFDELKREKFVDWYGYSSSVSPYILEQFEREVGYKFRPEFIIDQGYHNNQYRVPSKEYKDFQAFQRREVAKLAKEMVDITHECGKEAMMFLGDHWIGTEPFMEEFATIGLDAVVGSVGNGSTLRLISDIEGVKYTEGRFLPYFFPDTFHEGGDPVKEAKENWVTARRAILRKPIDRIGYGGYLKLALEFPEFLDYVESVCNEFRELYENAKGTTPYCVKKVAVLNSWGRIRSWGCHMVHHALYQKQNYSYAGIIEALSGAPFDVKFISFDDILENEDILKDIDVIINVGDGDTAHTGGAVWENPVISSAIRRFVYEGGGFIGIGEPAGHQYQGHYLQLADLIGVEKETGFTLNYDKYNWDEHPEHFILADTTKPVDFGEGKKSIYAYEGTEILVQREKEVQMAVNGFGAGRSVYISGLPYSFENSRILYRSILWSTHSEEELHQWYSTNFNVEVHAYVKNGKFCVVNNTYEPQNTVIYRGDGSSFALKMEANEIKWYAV

RhGLnbp112 = molecular target: T3, RhGLnbp112 (Roseburia hominis, UniProt G2T0V2); test: as above; assay type: biochemical; details: 50 mM sodium phosphate, 150 mM NaCl, 0.005% Triton X-100, pH 6.5, 37 °C, 2 mM substrate
T3 construct: gene RHOM_04120; cleavable His6 tag, pETM11, E. coli
T3 sequence (G2T0V2 entry or part of it): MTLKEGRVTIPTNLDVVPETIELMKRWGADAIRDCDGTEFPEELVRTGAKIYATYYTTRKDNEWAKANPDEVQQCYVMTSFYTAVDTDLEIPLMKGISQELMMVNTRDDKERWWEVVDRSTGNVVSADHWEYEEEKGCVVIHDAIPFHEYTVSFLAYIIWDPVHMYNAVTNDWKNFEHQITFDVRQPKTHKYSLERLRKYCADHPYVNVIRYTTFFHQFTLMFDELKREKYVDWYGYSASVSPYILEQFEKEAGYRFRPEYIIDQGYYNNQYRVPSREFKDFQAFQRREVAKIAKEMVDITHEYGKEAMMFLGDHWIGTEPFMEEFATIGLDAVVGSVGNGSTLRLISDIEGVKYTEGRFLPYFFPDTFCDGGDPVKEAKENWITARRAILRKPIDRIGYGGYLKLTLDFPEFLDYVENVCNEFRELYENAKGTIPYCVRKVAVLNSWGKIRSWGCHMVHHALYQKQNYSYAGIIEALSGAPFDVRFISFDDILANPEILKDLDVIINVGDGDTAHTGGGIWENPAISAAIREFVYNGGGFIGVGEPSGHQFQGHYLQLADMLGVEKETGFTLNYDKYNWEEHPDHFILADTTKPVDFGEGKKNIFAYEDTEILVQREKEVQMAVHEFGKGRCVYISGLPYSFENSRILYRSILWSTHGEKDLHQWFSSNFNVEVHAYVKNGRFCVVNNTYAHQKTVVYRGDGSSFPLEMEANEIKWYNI

RiLe^a/bBP [2] = molecular target: T4, RiLe^a/bBP (Roseburia inulinivorans, UniProt A0ACG1Y794); parameters: surface plasmon resonance, steady state, one-site fit; details: binder; read-out: KD (µM) SPR
T4 construct: gene LK408_15410; signal peptide removed, cleavable His6 tag, pETM11, expressed in E. coli; amine-coupled to CM5 chip
T4 sequence (A0ACG1Y794 20-470): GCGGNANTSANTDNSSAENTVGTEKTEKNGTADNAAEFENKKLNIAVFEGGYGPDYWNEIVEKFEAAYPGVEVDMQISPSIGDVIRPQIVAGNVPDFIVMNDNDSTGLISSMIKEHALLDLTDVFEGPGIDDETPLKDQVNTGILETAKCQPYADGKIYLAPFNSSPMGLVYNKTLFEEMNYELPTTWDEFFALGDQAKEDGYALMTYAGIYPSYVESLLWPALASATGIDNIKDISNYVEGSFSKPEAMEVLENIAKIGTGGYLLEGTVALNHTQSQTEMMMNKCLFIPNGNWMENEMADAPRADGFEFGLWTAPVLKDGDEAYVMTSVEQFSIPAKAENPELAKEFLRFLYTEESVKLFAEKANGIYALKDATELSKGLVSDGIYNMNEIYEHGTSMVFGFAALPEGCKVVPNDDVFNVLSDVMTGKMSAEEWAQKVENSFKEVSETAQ
Description: Both SBPs recognized distinct HMOs and ligands from host-glycans (Fig. 4, Supplementary Tables 2 and 3, Supplementary Fig. 7). […] The loss of the fucosyl unit at the terminal reducing GlcNAc reduced the affinity of RiLe^a/bBP about 5-fold for blood group H antigen triose type I (H triose type I) relative to Le^b tetraose. The specificity of RiLe^a/bBP is highlighted by the lack of affinity for lacto-N-neotetroase (LNnT), blood group A antigen triose (A triose), lactose and 2′-fucosyllactose (2′-FL). […] An equimolar mixture of Le^b, Le^a and H-triose type I oligomers promoted the growth of R. inulinivorans to a similar final OD600 as glucose (Fig. 1b, c and Fig. 4a). The uptake profiles of these ligands reflected the preference of RiLe^a/bBP, consistent with uptake by the associated transporter (Fig. 4). This was also in accord with the utilization of larger fucosylated HMO structures observed during growth on purified HMOs from mother’s milk (Supplementary Fig. 2a–c).

RhLNBBP [3] = molecular target: T5, RhLNBBP (Roseburia hominis, UniProt G2T0U7); parameters: isothermal titration calorimetry, single-site binding model; details: binder; read-out: KD (μM) ITC
T5 construct: gene RHOM_04095; signal peptide removed, cleavable His6 tag, pETM11, expressed in E. coli
T5 sequence (G2T0U7 21-454): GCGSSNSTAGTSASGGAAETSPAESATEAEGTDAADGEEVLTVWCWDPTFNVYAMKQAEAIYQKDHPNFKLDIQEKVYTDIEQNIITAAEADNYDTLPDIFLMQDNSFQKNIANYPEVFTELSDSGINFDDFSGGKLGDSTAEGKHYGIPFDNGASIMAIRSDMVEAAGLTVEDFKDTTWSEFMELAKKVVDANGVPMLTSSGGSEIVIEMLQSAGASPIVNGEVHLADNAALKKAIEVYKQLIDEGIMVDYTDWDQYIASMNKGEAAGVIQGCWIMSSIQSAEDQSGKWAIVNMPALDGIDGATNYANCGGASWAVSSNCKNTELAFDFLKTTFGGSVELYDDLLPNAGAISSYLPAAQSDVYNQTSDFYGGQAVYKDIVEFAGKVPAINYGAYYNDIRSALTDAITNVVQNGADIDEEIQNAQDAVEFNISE
Protocol: Binding of LNT, LNB, GNB, LNnT, lactose and 2′FL to RhLNBBP was measured using a Microcal ITC200 calorimeter (GE Healthcare). Titrations were performed in duplicates at 25 °C with RhLNBBP (0.1 mM) in the sample cell and 1.5 mM ligand in 10 mM sodium phosphate buffer, pH 6.5 in the syringe. A first injection of 0.4 µL was followed by 19 injections of 2 µL ligand each, separated by 180 s. Heat of dilution was determined from buffer titrations and corrected data were analysed using MicroCal Origin software v7.0. To determine binding thermodynamics a non-linear single binding model was fitted to the normalized integrated binding isotherms.

ErLnb136 = molecular target: T6, ErLnb136 (Eubacterium ramulus, UniProt U2PDT9); test: X-ray crystal structure; assay type: binding; details: SeMet-labelled protein, 1.4 Å; 25 mM LNB in cryoprotectant; active site
T6 construct: gene HMPREF0373_02965; single chain, domain I AA 7-224 and catalytic domain II AA 242-663; His6 tag, pETM11, E. coli; crystal SeMet-labelled
T6 sequence (U2PDT9 entry or part of it): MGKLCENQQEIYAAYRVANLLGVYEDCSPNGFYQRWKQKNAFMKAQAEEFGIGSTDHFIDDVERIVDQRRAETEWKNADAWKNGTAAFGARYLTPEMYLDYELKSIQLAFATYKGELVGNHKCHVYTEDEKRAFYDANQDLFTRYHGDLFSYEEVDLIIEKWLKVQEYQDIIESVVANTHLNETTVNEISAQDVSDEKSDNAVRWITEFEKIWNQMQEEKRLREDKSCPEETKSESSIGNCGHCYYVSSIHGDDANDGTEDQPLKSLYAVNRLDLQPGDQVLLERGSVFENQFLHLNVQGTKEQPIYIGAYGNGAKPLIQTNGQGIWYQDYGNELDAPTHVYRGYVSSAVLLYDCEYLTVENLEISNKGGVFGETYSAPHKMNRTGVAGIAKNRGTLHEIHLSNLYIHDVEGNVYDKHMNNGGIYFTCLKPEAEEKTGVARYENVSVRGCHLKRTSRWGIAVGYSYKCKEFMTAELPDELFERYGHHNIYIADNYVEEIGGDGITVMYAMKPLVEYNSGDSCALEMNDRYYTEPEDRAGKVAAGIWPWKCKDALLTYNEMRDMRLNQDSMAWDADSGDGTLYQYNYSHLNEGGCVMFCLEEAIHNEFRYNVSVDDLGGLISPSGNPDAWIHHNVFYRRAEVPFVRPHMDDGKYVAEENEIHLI

RiLe^a/bBP [4] = molecular target: T7, RiLe^a/bBP (Roseburia inulinivorans, UniProt A0ACG1Y794); test: surface plasmon resonance, steady state, one-site fit; assay type: binding; details: 20 mM sodium phosphate, 150 mM NaCl, 0.005% P20, pH 6.5, 25 °C; protein immobilised on CM5 chip
T7 construct: gene LK408_15410; signal peptide removed, cleavable His6 tag, pETM11, expressed in E. coli; amine-coupled to CM5 chip

RiFuc29 = molecular target: T8, RiFuc29 (Roseburia inulinivorans, UniProt A0ACG1Y7F2); test: product profile (TLC and/or MALDI-TOF MS); assay type: biochemical; details: 50 mM MES, 150 mM NaCl, 0.005% Triton X-100, pH 6.5, 37 °C, 16 h; alpha-(1->4)-L-fucosyl removed
T8 construct: gene LK408_15425; cleavable His6 tag, pETM11, E. coli; no signal peptide; the GH29 of the GH112/GH136 locus, not that of the GH98 locus
T8 sequence (A0ACG1Y7F2 entry or part of it): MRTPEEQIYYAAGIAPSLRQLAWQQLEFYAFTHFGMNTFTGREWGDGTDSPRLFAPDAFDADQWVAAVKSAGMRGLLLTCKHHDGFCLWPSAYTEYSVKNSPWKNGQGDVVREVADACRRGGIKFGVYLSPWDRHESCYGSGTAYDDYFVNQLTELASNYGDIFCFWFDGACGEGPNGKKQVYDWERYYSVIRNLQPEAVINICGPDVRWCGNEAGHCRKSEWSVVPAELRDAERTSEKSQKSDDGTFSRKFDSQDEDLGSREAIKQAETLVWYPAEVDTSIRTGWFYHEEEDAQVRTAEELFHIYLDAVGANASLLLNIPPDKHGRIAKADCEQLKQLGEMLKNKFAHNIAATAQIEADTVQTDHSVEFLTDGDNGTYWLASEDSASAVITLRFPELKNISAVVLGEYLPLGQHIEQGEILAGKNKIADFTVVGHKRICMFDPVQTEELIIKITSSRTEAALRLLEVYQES

[5] = molecular target: T9, ErLnb136II, C-terminal catalytic beta-helix domain of the GH136 lacto-N-biosidase ErLnb136 from Eubacterium … (Eubacterium ramulus DSM 15684, UniProt U2PDT9 242-663, selenomethionine in the SeMet-labelled crystal (PDB 6KQS)); test: crystal structure; ErLnb136 (both domains on one chain) with LNB; SeMet-labelled 1.4 Å and native 2.0 Å; sitting-drop vapor diffusion at 20 °C; details: both partners purified
T9 construct: C-terminal catalytic domain (AA 242-663, beta-helix fold) of ErLnb136, product of HMPREF0373_02965 of Eubacterium ramulus DSM 15684; In the crystal this domain is on ONE natural polypeptide with m3 (whole ErLnb136, cloned in pETM11 with a cleavable N- or C-terminal His6 tag); also called GH136II domain; source: E. coli B834 (DE3), SeMet-labelled, and E. coli BL21 ΔlacZ (DE3)/pRARE2, native
T9 sequence (looked up): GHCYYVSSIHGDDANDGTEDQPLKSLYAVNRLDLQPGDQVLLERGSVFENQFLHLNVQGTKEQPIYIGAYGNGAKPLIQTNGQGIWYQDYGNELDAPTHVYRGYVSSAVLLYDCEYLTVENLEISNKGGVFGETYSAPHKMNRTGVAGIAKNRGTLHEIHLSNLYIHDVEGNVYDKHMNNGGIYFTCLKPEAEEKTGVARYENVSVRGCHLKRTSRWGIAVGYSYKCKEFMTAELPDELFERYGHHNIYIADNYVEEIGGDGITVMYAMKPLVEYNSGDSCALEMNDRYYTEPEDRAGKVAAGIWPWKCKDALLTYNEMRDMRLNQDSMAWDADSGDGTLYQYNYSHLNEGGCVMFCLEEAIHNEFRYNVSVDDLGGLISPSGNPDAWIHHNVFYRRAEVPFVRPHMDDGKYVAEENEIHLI

Molecule: CC(=O)N[C@H]1C(O)O[C@H](CO)[C@H](O)[C@@H]1O[C@@H]1O[C@H](CO)[C@H](O)[C@H](O)[C@H]1O (stereo partly drawn) [GNB]
KD (RhLNBBP [1]): shows preference to LNB followed by GNB and LNT
phosphorolysis, HPAEC-PAD of Gal1P; specific activity only (RiGLnbp112): (RiGLnbp112) phosphorolyzes LNB and GNB equally efficiently
phosphorolysis, HPAEC-PAD of Gal1P; specific activity only (RhGLnbp112): This enzyme has comparable specific activities for LNB and GNB
Kd (RiLe^a/bBP [2]): 10.8 µM and 10.2 µM
Kd (RhLNBBP [3]): 10.9 µM and 11.1 µM

Molecule: CC(=O)N[C@H]1[C@H](O[C@H]2[C@@H](O)[C@@H](CO)O[C@@H](O[C@H]3[C@H](O)[C@@H](O)C(O)O[C@@H]3CO)[C@@H]2O)O[C@H](CO)[C@@H](O)[C@@H]1O[C@@H]1O[C@H](CO)[C@H](O)[C@H](O)[C@H]1O (stereo partly drawn) [LNT]
KD (RhLNBBP [1]): shows preference to LNB followed by GNB and LNT
Kd (RhLNBBP [3]): 11 µM and 9.71 µM

Molecule: CC(=O)N[C@H]1C(O)O[C@H](CO)[C@@H](O[C@@H]2O[C@@H](C)C(O)C(O)[C@@H]2O)[C@@H]1O[C@@H]1O[C@H](CO)[C@H](O)[C@H](O)[C@H]1O (stereo partly drawn) [Le^a triose]
KD (RiLe^a/bBP [4]): Lewis b (Le^b) tetraose and Lewis a (Le^a) triose were the preferred ligand
product profile (TLC and/or MALDI-TOF MS) (RiFuc29): complete defucosylation of putative products of RiGH136, Le^b tetraose, Le^a triose and H triose

Further lines, with some results ahead:

Kd (RiLe^a/bBP [2]): 6.63 µM and 6.91 µM
Kd (RhLNBBP [3]): 2.64 µM and 3.12 µM
Molecule: CC(=O)N[C@H]1C(O)O[C@H](CO)[C@@H](O)[C@@H]1O[C@@H]1O[C@H](CO)[C@H](O)[C@H](O)[C@H]1O (stereo partly drawn) [LNB]
KD (RhLNBBP [1]): shows preference to LNB followed by GNB and LNT
phosphorolysis, HPAEC-PAD of Gal1P; specific activity only (RiGLnbp112): (RiGLnbp112) phosphorolyzes LNB and GNB equally efficiently
phosphorolysis, HPAEC-PAD of Gal1P; specific activity only (RhGLnbp112): This enzyme has comparable specific activities for LNB and GNB
X-ray crystal structure (ErLnb136): The LNB molecule bound in the active site is recognized by ten potential hydrogen bonds

Kd (RiLe^a/bBP [2]): 1.77 µM and 1.75 µM
Molecule: CC(=O)N[C@H]1C(O)O[C@H](CO)[C@@H](O[C@@H]2O[C@@H](C)[C@@H](O)[C@@H](O)[C@@H]2O)[C@@H]1O[C@@H]1O[C@H](CO)[C@H](O)[C@H](O)[C@H]1O[C@@H]1O[C@@H](C)[C@@H](O)[C@@H](O)[C@@H]1O (stereo partly drawn) [Le^b tetraose]
KD (RiLe^a/bBP [4]): Lewis b (Le^b) tetraose and Lewis a (Le^a) triose were the preferred ligand

binding result [5]: binds
B1: ErLnb136I, N-terminal domain of the GH136 lacto-N-biosidase ErLnb136 from Eubacterium ramulus (domain or fragment, Eubacterium ramulus DSM 15684, UniProt U2PDT9 7-224, looked up)
chain: NQQEIYAAYRVANLLGVYEDCSPNGFYQRWKQKNAFMKAQAEEFGIGSTDHFIDDVERIVDQRRAETEWKNADAWKNGTAAFGARYLTPEMYLDYELKSIQLAFATYKGELVGNHKCHVYTEDEKRAFYDANQDLFTRYHGDLFSYEEVDLIIEKWLKVQEYQDIIESVVANTHLNETTVNEISAQDVSDEKSDNAVRWITEFEKIWNQMQEEKRLRE
modifications: selenomethionine in the SeMet-labelled crystal (PDB 6KQS)
notes: N-terminal domain (AA 7-224, eight alpha-helices, new fold) of ErLnb136, product of HMPREF0373_02965 of Eubacterium ramulus DSM 15684; residues 180-199 are disordered in the structure; In the crystal this domain is on ONE natural polypeptide with m4 (whole ErLnb136, cloned in pETM11 with a cleavable N- or C-terminal His6 tag); The linker 225-241 is disordered; also called GH136I domain; source: …
